Structures can show the parent of a compound that is named as a salt.
What was measured:
[1] = Evaluation test of elution in phosphate-buffered saline (pH 7.4), elution rate of compound 1 by UPLC-MS; assay type: physicochemical; details: phosphate-buffered saline pH 7.4, 37°C, shaking 60 strokes/min
Protocol: (§1) Quantitative determination of the concentration of the compound 1 in the following Test Examples and Reference Examples was performed using ultra-high performance liquid chromatography with a single quadrupole mass spectrometer as a detector.
An evaluation test of the elution of the fine particle a prepared in Reference Example 1-1 was performed in the same manner as in Test Example 1 mentioned later. Specifically, the fine particle a (10 mg) was added to phosphate-buffered saline (pH 7.4, 30 mL), and using a shaker, the mixture was horizontally shaken at 37° C. for 24 hours at a shaking speed of 60 strokes/min and with a shaking width of 2.0 cm/stroke to evaluate “elution”. Quantitative determination of the concentration of the compound 1 was performed using ultra-high performance liquid chromatography with a single quadrupole mass spectrometer as a detector to calculate an elution rate. The test results of the fine particle a are shown in Table 1 below together with the test results of the compound 1 bulk powder obtained in Test Example 1 mentioned later.
Using the fine particles A, B, C, D and E prepared in Test Example 1-1 and the compound 1 bulk powder, an evaluation test of each elution was performed. Each of the fine particles A, B, C, D and E and the compound 1 bulk powder (10 mg) was added to phosphate-buffered saline (pH 7.4, 30 mL), and using a shaker, the mixtures were horizontally shaken at 37° C. for 24 hours at a shaking speed of 60 strokes/min and with a shaking width of 2.0 cm/stroke to evaluate “elution”. Quantitative determination of the concentration of the compound 1 was performed using ultra-high performance liquid chromatography with a single quadrupole mass spectrometer as a detector to calculate an elution rate.
Using the fine particle F prepared in Test Example 2-1 and the compound 1 bulk powder, an evaluation test of each elution was performed in the same manner as in Test Example 1. Each of the fine particle F and the compound 1 bulk powder (10 mg) was added to phosphate-buffered saline (pH 7.4, 30 mL), and using a shaker, the mixtures were horizontally shaken at 37° C. for 72 hours at a shaking speed of 60 strokes/min and with a shaking width of 2.0 cm/stroke to evaluate “elution”.

[2] = Pharmacokinetic evaluation: concentration of compound 1 in plasma after single administration to SD male rats; assay type: in vivo; details: for BA / AUC(0-inf) / Cmax / Tmax / half-life: 5 mg/kg as compound 1, single, SD male rats; for AUC(0-inf) / Cmax / Tmax / half-life: rat, plasma
Protocol: as §1
To evaluate the sustained-release ability of fine particle B, the concentration of the compound 1 in blood was measured over time after subcutaneous administration of the fine particle B or the compound 1 bulk powder to rats or after oral administration of the compound 1 bulk powder to rats. The fine particle B was suspended in physiological saline and the compound 1 bulk powder was dissolved in physiological saline, and then 5 mg/kg each as an amount of the compound 1 was singly administered to SD male rats. After administration, blood was collected over time from the tail vein, and the blood was transferred into a micro test tube treated with heparin, and immediately cooled in ice. After cooling in ice, the blood was immediately centrifuged at 4° C. and 10,000 g for 10 minutes. The concentration of the compound 1 in plasma thus obtained was quantitatively determined using ultra-high performance liquid chromatography with a single quadrupole mass spectrometer as a detector.
Cmax, Tmax, T1/2, AUC0-∞ and BA represent maximum blood concentration (concentration at the peak of blood concentration curve), time to reach maximum blood concentration (time to reach the peak of blood concentration curve), half-life of the concentration of drug in blood, area under curve from initiation of administration to drug elimination and bioavailability, respectively.
To evaluate the sustained-release ability of fine particle F, the concentration of the compound 1 in blood was measured over time after subcutaneous administration of the fine particle F prepared in Test Example 2-1 or the compound 1 bulk powder to rats. The method was same as in Test Example 1-3. Specifically, the fine particle F was suspended in physiological saline and the compound 1 bulk powder was dissolved in physiological saline, and then 5 mg/kg each as an amount of the compound 1 was singly subcutaneously administered to SD male rats. After subcutaneous administration, blood was collected over time from the tail vein, and the blood was transferred into a micro test tube treated with heparin, and immediately cooled in ice. After cooling in ice, the blood was immediately centrifuged at 4° C. and 10,000 g for 10 minutes. The concentration of the compound 1 in plasma thus obtained was quantitatively determined using ultra-high performance liquid chromatography with a single quadrupole mass spectrometer as a detector.
To evaluate the sustained-release ability of the hydrogel a prepared in Reference Example 3-1, the concentration of the compound 1 in blood was measured over time after subcutaneous administration of the hydrogel a or the compound 1 bulk powder to rats. Specifically, the hydrogel a or the compound 1 bulk powder at a dose of 5 mg/kg as an amount of the compound 1 was singly subcutaneously administered to SD male rats. After subcutaneous administration, blood was collected over time from the tail vein, and the blood was transferred into a micro test tube treated with heparin, and immediately cooled in ice. After cooling in ice, the blood was immediately centrifuged at 4° C. and 10,000 g for 10 minutes. The concentration of the compound 1 in plasma thus obtained was quantitatively determined using ultra-high performance liquid chromatography with a single quadrupole mass spectrometer as a detector. […]

[3] = sc, subcutaneous administration
[4] = subcutaneous administration, 5 mg/kg as compound 1, SD male rats

For `CCS(=O)(=O)Nc1ncc(C(F)(F)F)cc1NC(=O)C1CCCCC1` [Compound 1 bulk powder, N-(2-ethylsulfonylamino-5-trifluoromethyl-3-pyridyl)cyclohexanecarboxamide-monosodium salt-monohydrate], the Elution rate ([1]; Time 0 h) was 0%, the Elution rate ([1]; Time 0.5 h) was 83.73 ± 4.31% and the Elution rate ([1]; Time 1 h) was 93.59 ± 1.63%. The Elution rate ([1]; Time 3 h) was 94.77 ± 2.26%, the Elution rate ([1]; Time 6 h) was 92.00 ± 2.45% and the Elution rate ([1]; Time 12 h) was 91.63 ± 1.84%. The Elution rate ([1]; Time 24 h) was 97.10 ± 1.96%, the Elution rate ([1]; Time 48 h) was 91.10 ± 3.80% and the Elution rate ([1]; Time 72 h) was 93.29 ± 1.36%. The BA ([2]; oral administration) was 41%, the AUC(0-inf) [2, 3] was 8550 ± 600 ng·h/mL and the Cmax [2, 3] was 9600 ± 700 ng/mL. The Tmax [2, 3] was 15 min, the half-life [2, 3] was 21.6 min and the AUC(0-inf) ([2]; oral administration) was 5160 ± 200 ng·h/mL. It also gave a Cmax ([2]; oral administration) of 3100 ± 500 ng/mL, a Tmax ([2]; oral administration) of 15 min and a half-life ([2]; oral administration) of 68.4 ± 12 min. For the same compound, the “Concentration of compound 1 in plasma at 12 hours after administration” value [2, 4] was “below the detection limit”, the “Concentration of compound 1 in plasma at 24 hours after administration” value [2, 4] was “below the detection limit” and the BA ([2]; subcutaneous administration) was 67%.

Source: patent publication US20200289481A1, “SUSTAINED-RELEASE PHARMACEUTICAL COMPOSITION” (ISHIHARA SANGYO KAISHA, LTD., priority 2017, published 2020)
